Results: patent publication US11318137B2, “Quinazoline compounds as modulators of Ras signaling” (VANDERBILT UNIVERSITY, priority 2017, dated 2022)

Biological target: T1, SOS-mediated nucleotide exchange on Ras (Homo sapiens, UniProt Q07889)
T1 sequence (Q07889 1-1333): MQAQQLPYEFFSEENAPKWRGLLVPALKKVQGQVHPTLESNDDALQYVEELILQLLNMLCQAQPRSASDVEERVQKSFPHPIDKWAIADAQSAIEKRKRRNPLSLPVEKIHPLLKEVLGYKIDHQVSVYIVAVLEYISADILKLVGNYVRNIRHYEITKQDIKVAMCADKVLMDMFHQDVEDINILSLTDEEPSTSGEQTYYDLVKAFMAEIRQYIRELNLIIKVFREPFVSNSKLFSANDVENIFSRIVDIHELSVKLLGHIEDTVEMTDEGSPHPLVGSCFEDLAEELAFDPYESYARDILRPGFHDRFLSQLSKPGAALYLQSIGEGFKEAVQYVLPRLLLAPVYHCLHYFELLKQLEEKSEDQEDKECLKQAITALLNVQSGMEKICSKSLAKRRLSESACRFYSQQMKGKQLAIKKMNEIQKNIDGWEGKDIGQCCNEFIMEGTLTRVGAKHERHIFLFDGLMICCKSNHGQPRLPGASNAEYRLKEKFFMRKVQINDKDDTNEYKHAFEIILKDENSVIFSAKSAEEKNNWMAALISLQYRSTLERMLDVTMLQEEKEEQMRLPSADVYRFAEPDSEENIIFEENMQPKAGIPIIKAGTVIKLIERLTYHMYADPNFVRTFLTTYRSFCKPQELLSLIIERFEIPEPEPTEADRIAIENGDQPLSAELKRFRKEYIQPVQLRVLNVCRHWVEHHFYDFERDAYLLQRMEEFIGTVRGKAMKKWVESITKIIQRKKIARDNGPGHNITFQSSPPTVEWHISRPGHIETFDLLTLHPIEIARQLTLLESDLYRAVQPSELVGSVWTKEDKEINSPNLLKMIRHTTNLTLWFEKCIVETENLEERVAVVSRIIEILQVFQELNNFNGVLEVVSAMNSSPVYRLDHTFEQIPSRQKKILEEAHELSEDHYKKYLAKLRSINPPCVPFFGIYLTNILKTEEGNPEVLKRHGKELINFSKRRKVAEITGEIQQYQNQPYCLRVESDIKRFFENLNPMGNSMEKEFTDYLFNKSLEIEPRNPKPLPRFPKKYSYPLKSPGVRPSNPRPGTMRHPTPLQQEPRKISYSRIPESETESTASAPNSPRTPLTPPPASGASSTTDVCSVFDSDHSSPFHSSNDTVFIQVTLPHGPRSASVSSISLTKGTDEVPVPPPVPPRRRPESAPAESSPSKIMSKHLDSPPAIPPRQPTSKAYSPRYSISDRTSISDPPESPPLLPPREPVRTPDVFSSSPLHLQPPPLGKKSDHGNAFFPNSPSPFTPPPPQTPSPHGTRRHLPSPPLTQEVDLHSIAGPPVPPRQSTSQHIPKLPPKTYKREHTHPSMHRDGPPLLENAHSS
Experiment: SOS-mediated nucleotide exchange on Ras (BODIPY-GDP fluorescence)
Assay type: biochemical
Conditions: Ras loaded with BODIPY-GDP, GTP and SOS added; EC50 from derived exchange rates
Description: A. SOS-Mediated Nucleotide Exchange on Ras
Compounds of the present invention were tested for their ability to modify the rate at which Ras exchanges a labeled nucleotide guanosine diphosphate (GDP) analog for guanosine triphosphate (GTP). Briefly, test compounds, then GTP and the Ras GEF SOS (Son of Sevenless) are added to a buffered solution containing Ras protein loaded with BODIPY-GDP. Changes in fluorescence indicating exchange of the labeled GDP for GTP are monitored over time. Raw fluorescence data was fit to a single exponential decay function and derived rates were plotted as mean values. EC50 values were calculated by plotting mean derived rates as a function of compound concentration and fit using a four-parameter dose-response curve. Full assay details are disclosed in: Burns, M. C.; Sun, Q.; Daniels, R. N.; Camper, D. V.; Kennedy, J. P.; Phan, J.; Olejniczak, E. O.; Lee, T.; Waterson, A. G.; Rossanese, O. W.; Fesik, S. W. “Approach for targeting Ras with small molecules that activate SOS-mediated nucleotide exchange” Proc. Natl. Acad. Sci. 2014; 11(9): 3401-3406. PMCID: PMC3948241.

SMILES | EC50
FC(F)(F)Oc1cccc(Nc2nc(NCc3cccs3)c3ccccc3n2)c1 [Example 7, N^4-(thiophen-2-ylmethyl)-N^2-(3-(trifluoromethoxy)phenyl)quinazoline-2,4-diamine] | 5 to 30 µM
c1coc(CNc2nc(Nc3ccc4c(c3)CCC4)nc3ccccc23)c1 [Example 10, N^2-(2,3-dihydro-1H-inden-5-yl)-N^4-(furan-2-ylmethyl)quinazoline-2,4-diamine] | 5 to 30 µM
c1coc(CNc2nc(Nc3ccc4[nH]nnc4c3)nc3ccccc23)c1 [Example 11, N^2-(1H-benzo [d][1,2,3]triazol-5-yl)-N^4-(furan-2-ylmethyl)quinazoline-2,4-diamine] | > 30 µM
COc1cccc(CNc2nc(NCc3ccco3)c3ccccc3n2)c1 [Example 12, N^4-(furan-2-ylmethyl)-N^2-(3-methoxybenzyl)quinazoline-2,4-diamine] | 5 to 30 µM
Oc1cccc(Nc2nc(NCc3cccs3)c3ccccc3n2)c1 [Example 13, 3-((4-((thiophen-2-ylmethyl)amino)quinazolin-2-yl)amino)phenol] | 5 to 30 µM
c1ccc2c(NCC3CC3)nc(NCC3CCC3)nc2c1 [Example 17, N^2-(cyclobutylmethyl)-N^4-(cyclopropylmethyl)quinazoline-2,4-diamine] | 5 to 30 µM
c1ccc2c(NCC3CC3)nc(NCC3CCCO3)nc2c1 (stereo not shown) [Example 18, N^4-(cyclopropylmethyl)-N^2-((THF-2-yl)methyl)quinazoline-2,4-diamine] | > 30 µM
CC(C)[C@@H](C)Nc1nc(Nc2cc(F)cc(F)c2)nc2ccccc12 [Example 20, (R)—N^2-(3,5-difluorophenyl)-N^4-(3-methylbutan-2-yl)quinazoline-2,4-diamine] | 5 to 30 µM
c1ccc(CNc2nc(Nc3ccccc3)nc3ccccc23)cc1 [Example 33, N^4-benzyl-N^2-phenylquinazoline-2,4-diamine] | 5 to 30 µM
C[C@@H](Nc1nc(Nc2cc(F)cc(F)c2)nc2ccccc12)C(C)(C)C [Example 41, (R)—N^2-(3,5-difluorophenyl)-N^4-(3,3-dimethylbutan-2-yl)quinazoline-2,4-diamine] | 1 to 5 µM
Cc1cc(F)cc(Nc2nc(N[C@H](C)C(C)(C)C)c3cccc(C4=CCNCC4)c3n2)c1 [Example 80, (R)—N^4-(3,3-dimethylbutan-2-yl)-N^2-(3-fluoro-5-methylphenyl)-8-(1,2,3,6-tetrahydropyridin-4-yl)quinazoline-2,4-diamine] | 1 to 5 µM
Cc1cc(F)cc(Nc2nc(N[C@H](C)C(C)(C)C)c3cccc(CCN)c3n2)c1 [Example 83, (R)-8-(2-aminoethyl)-N^4-(3,3-dimethylbutan-2-yl)-N^2-(3-fluoro-5-methylphenyl)quinazoline-2,4-diamine] | 1 to 5 µM
C[C@@H](Nc1nc(Nc2ccc(F)c(Cl)c2)nc2c(C3=CCNCC3)cccc12)c1cccs1 [Example 88, (R)—N^2-(3-chloro-4-fluorophenyl)-8-(1,2,3,6-tetrahydropyridin-4-yl)-N^4-(1-(thiophen-2-yl)ethyl)quinazoline-2,4-diamine] | 1 to 5 µM
C[C@@H](Nc1nc(NCC2CCCCC2)nc2c(CN)cccc12)c1cccs1 [Example 96, (R)-8-(aminomethyl)-N^2-(cyclohexylmethyl)-N^4-(1-(thiophen-2-yl)ethyl)quinazoline-2,4-diamine] | 1 to 5 µM
CCC(CC)CNc1nc(Nc2ccc(F)c(Cl)c2)nc2c(C#N)cccc12 [Example 99, 2-((3-chloro-4-fluorophenyl)amino)-4-((2-ethylbutyl)amino)quinazoline-8-carbonitrile] | 1 to 5 µM

More lines, now with the values ahead:

EC50 | SMILES
5 to 30 µM | C[C@@H](Nc1nc(Nc2cc(F)c(F)c(F)c2)nc2ccccc12)C1CC1 [Example 6, (R)—N^4-(1-cyclopropylethyl)-N^2-(3,4,5-trifluorophenyl)quinazoline-2,4-diamine]
5 to 30 µM | FC(F)(F)c1cccc(Nc2nc(NCc3ccco3)c3ccccc3n2)c1 [Example 8, N^44-(furan-2-ylmethyl)-N^2-(3-(trifluoromethyl)phenyl)quinazoline-2,4-diamine]
5 to 30 µM | Cc1ccc(CNc2nc(Nc3ccc(F)c(Cl)c3)nc3ccccc23)o1 [Example 15, N^2-(3-chloro-4-fluorophenyl)-N^4-((5-methylfuran-2-yl)methyl)quinazoline-2,4-diamine]
5 to 30 µM | CCC(C)CNc1nc(Nc2ccc(F)c(Cl)c2)nc2ccccc12 (stereo not shown) [Example 16, N^2-(3-chloro-4-fluorophenyl)-N^4-(2-methylbutyl)quinazoline-2,4-diamine]
1 to 5 µM | C[C@@H](Nc1nc(NCc2cccc(Cl)c2F)nc2ccccc12)C1CC1 [Example 25, (R)—N^2-(3-chloro-2-fluorobenzyl)-N^4-(1-cyclopropylethyl)quinazoline-2,4-diamine]
1 to 5 µM | Cc1cccc(CNc2nc(N[C@H](C)C3CC3)c3ccccc3n2)c1F [Example 26, (R)—N^4-(1-cyclopropylethyl)-N^2-(2-fluoro-3-methylbenzyl)quinazoline-2,4-diamine]
5 to 30 µM | C[C@@H](Nc1nc(NCc2cccc(C(F)(F)F)c2)nc2ccccc12)C1CC1 [Example 28, (R)—N^4-(1-cyclopropylethyl)-N^2-(3-(trifluoromethyl)benzyl)quinazoline-2,4-diamine]
5 to 30 µM | C[C@@H](Nc1nc(NCc2ccccc2F)nc2ccccc12)C1CC1 [Example 29, (R)—N^4-(1-cyclopropylethyl)-N^2-(2-fluorobenzyl)quinazoline-2,4-diamine]
5 to 30 µM | C[C@@H](Nc1nc(Nc2ccc(F)c(Cl)c2F)nc2ccccc12)C1CC1 [Example 30]
1 to 5 µM | CCC(CC)CNc1nc(Nc2ccc(F)c(Cl)c2)nc2ccccc12 [Example 31, N^2-(3-chloro-4-fluorophenyl)-N^4-(2-ethylbutyl)quinazoline-2,4-diamine]
1 to 5 µM | C[C@@H](Nc1nc(Nc2ccc(F)c(Cl)c2)nc2ccccc12)C1CCCC1 [Example 43, (R)—N^2-(3-chloro-4-fluorophenyl)-N^4-(1-cyclopentylethyl)quinazoline-2,4-diamine]
> 30 µM | CC[C@@H](Nc1nc(Nc2ccc(F)c(Cl)c2)nc2ccccc12)C1CCCC1 [Example 44, (R)—N^2-(3-chloro-4-fluorophenyl)-N^4-(1-cyclopentylpropyl)quinazoline-2,4-diamine]
> 30 µM | Fc1ccc(Nc2nc(N[C@@H](C3CC3)C(F)(F)F)c3ccccc3n2)cc1Cl [Example 45, (S)—N^2-(3-chloro-4-fluorophenyl)-N^4-(1-cyclopropyl-2,2,2-trifluoroethyl)quinazoline-2,4-diamine]
> 30 µM | C[C@@H](Nc1nc(Nc2ccc(F)c(Cl)c2)nc2c(Br)cccc12)C1CC1 [Example 46, (R)-8-bromo-N^2-(3-chloro-4-fluorophenyl)-N-(1-cyclopropylethyl)quinazoline-2,4-diamine]
1 to 5 µM | C[C@@H](Nc1nc(Nc2ccc(F)c(Cl)c2)nc2c(C3CNC3)cccc12)C1CC1 [Example 61, (R)-8-(azetidin-3-yl)-N^2-(3-chloro-4-fluorophenyl)-N^4-(1-cyclopropylethyl)quinazoline-2,4-diamine]
5 to 30 µM | C[C@@H](Nc1nc(Nc2ccc(F)c(Cl)c2)nc2c(C3=CCNCC3)cccc12)C(C)(C)C [Example 79, (R)—N^2-(3-chloro-4-fluorophenyl)-N^4-(3,3-dimethylbutan-2-yl)-8-(1,2,3,6-tetrahydropyridin-4-yl)quinazoline-2,4-diamine]
